Values quoted from earlier work in patent US10508092B2, “Synthesis of novel analogs of diptoindonesin G, compounds formed thereby, and pharmaceutical compositions containing them” (Wisconsin Alumni Research Foundation, priority 2016, dated 2019).

Columns and labels:
[1] = system: murine leukemia P-388 cells; details: cited from earlier work
[2] = system: estrogen receptor α (ERα); details: breast cancer, Zhao et al. 2015; cited from earlier work

Which results are given for `O=C1c2c(O)cc(O)cc2-c2c(-c3ccc(O)cc3)oc3cc(O)cc1c23` [Dip G, diptoindonesin G]?
anti-proliferation effect [1]: anti-proliferation effect; stability of ERα [2]: decreases the stability
